# Assay results from patent publication US20230364243A1, “CANCER-SELECTIVE TARGET DEGRADATION BY TARGETING GROUP CAGED PROTACS” (Beth Israel Deaconess Medical Center, Inc., priority 2021, published 2023).
# Tests used:
# BRD4 = target: T1, BRD4 (Homo sapiens, UniProt O60885); test: Western blot analysis of BRDs protein levels in HeLa cells; type: cell-based
# T1 construct: endogenous in cells; host or cells: HeLa
# [1] = target: Flag-tagged cereblon (CRBN) (Homo sapiens, UniProt Q96SW2); test: Streptavidin pulldown competition with biotinylated pomalidomide for Flag-CRBN; type: binding; settings: for competition with biotinylated-pomalidomide to bind CRBN E3 ubiquitin ligase: caged, inert form, HEK293T cell lysis, 1 hour
# Method: Streptavadin pull down assays were performed on cell lysis derived from HEK293T (kidney) cells. Cell lysis was incubated with biotin or biotin-POMA, with or without pomalidomide, FA-S2_POMA or FA-C2-POMA for 1 hour. Additionally, some cell lysates had been pretreated with GSH.
# The streptavidin pulldown assay for biotin-pomalidomide was performed as previous reported. Briefly, Flag-CRBN was expressed in HEK293T cells lysed in PROTAC buffer B (50 mM Tris-HCl pH7.5, 150 mM NaCl and 0.5% NP-40) supplemented with protease inhibitors (Pierce) and phosphatase inhibitors (phosphatase inhibitor cocktail set I and II, Calbiochem). A total of 1 mg of cell lysate was incubated with 10 μl of 10 mM biotin-pomalidomide and 8 μl of streptavidin beads for 1 hour at 4° C. in the absence or presence of pomalidomide or its derivates. Alternatively, Folate-S2-pomalidomide or Folate-C2-pomalidomide were incubated with 5 mM GSH and then subjected to the competition bindingassay. Then, the beads were washed four times with NETN buffer (20 mM Tris-HCl pH 7.5, pH 8.0, 100 mM NaCl, 1 mM EDTA and 0.5% NP-40), before being resolved by SDS-PAGE and immunoblotted with Flag-tag antibody.
# IKZF3 [2] = target: T2, IKZF3 (Homo sapiens, UniProt Q9UKT9); test: Western blotting of IKZF3 in MM.1S cells; type: cell-based; settings: FOLR1-positive MM.1S cells, 12 hours
# T2 construct: endogenous in cells; host or cells: MM.1S (also MM.1S-CRBN+/+ and CRBN-/-)
# Method: (§1) For folic acid competitive degradation assay, cells were pretreated with folic acid (F8758, Sigma-Aldrich, 2.5 mM) for 2 hours, followed by the treatment of indicated PROTACs for indicated time. […] For proteasome or E3 ligase inhibition assay, cells were treated with MG132 (BML-P11020, ENZO Life Sciences, 10 μM) or MLN4924 (S7109, SelleckChem, 1 μM) another 12 hours.
# (§2) Cells were lysed in EBC buffer (50 mM Tris-HCl pH 7.5, 120 mM NaCl and 0.5% NP-40) supplemented with protease inhibitors (Pierce) and phosphatase inhibitors (phosphatase inhibitor cocktailset I and II, Calbiochem). The protein concentrations of the lysates were measured using the Bio-Rad protein assay reagent on a Beckman Coulter DU-800 spectrophotometer. The lysates (40 μg protein) werethen resolved by 10% SDS-olyacrylamide gel electrophoresis (PAGE) at 130 V for 80 min and immunoblotted with indicated antibodies at 4° C. overnight, washed four times with Tris-buffered saline with 0.1% Tween-20 (TBST) buffer, incubated with secondary antibody for 1 hour at room temperature, and then washed 4 times with TBST.
# MM.1S cells = test: Cell viability / proliferation of MM.1S cells (CCK-8); type: cell-based; settings: for IC50: Homo sapiens, MM1.S
# Method: (§3) For folic acid competitive degradation assay, cells were pretreated with folic acid (F8758, Sigma-Aldrich, 2.5 mM) for 2 hours, followed by the treatment of indicated PROTACs for indicated time. For endocytosis inhibition, cells were pretreated with Pitostop 2 (SML1169, Sigma-Aldrich, 1-30 μM) or MCD (21633, Cayman, 0.03-1 mM) for 12 hours, followed by co-treatment with indicated PROTACs for another 12 hours. For proteasome or E3 ligase inhibition assay, cells were treated with MG132 (BML-P11020, ENZO Life Sciences, 10 μM) or MLN4924 (S7109, SelleckChem, 1 μM) another 12 hours. For GSH-stimulating assay, cells were treated with S-Acetyl-GSH (29624, Cayman, 1 mM) with indicated PROTACs for 12 or 72 hours.
# (§4) Cell in 96-well plates were treated with drugs as indicated, and then incubated with 10 μl/well of CCK-8 (cell counting Kit-8) solution at for 1-2 hours, followed by the measurement of optical density at 450 nm.
# IKZF1 = target: T3, IKZF1 (Homo sapiens, UniProt Q13422+Q96SW2); test: Western blotting of IKZF1 in SU-DHL-1 cells; type: cell-based; settings: FOLR1-positive SU-DHL-1 cells, 12 hours
# T3 construct: endogenous in cells; host or cells: SU-DHL-1
# Method: as §2
# [3] = Release of active compound after incubation with DTT in PBS at 37° C., HPLC analysis; type: physicochemical; settings: DTT (2 equiv), 37° C. in PBS, HPLC
# Method: FA-S2-POMA and the negative control FA-C2-POMA were incubated with dithiothreitol (DTT) under physiological conditions (37° C. in phosphate buffered saline (PBS)) and then subjected to HPLC analysis.
# The effects of these folate caged PROTACS on ALK fusion protein degradation was assessed in cancer cells. FA-S2-MS4048 and FA-C2-MS4048 were incubated with DTT at 37° C. in PBS. […] Furthermore, compared to FA-S2-POMA (FIG. 11B), the release rate of FA-S2-MS4048 is slower.
# IKZF3 [4] = target: T4, IKZF3 (Homo sapiens, UniProt Q96SW2+Q9UKT9); test: Western blotting of IKZF3 in MM.1S cells; type: cell-based; design: endogenous in cells; host or cells: MM.1S (also MM.1S-CRBN+/+ and CRBN-/-); settings: for effect on degrading IKZF3 after depletion of endogenous CRBN E3 ubiquitin ligase: CRBN knockout
# Method: as §1, §2
# HT-29 cells = test: Cell viability of HT-29 cells (CCK-8); type: cell-based; settings: 72 hours
# Method: as §4
# SK-MEL-28 cells = test: Cell viability of SK-MEL-28 cells (CCK-8); type: cell-based; settings: 72 hours
# Method: as §4
# MEK1 and MEK2 = test: Western blot analysis of MEK1 and MEK2 levels in HT29 and SK-MEL-28 cells; type: cell-based
# Method: as §3
# (§5) Cells were lysed in EBC buffer (50 mM Tris pH 7.5, 120 mM NaCl, 0.5% NP-40) supplemented with protease inhibitors (Pierce) and phosphatase inhibitors (phosphatase inhibitor cocktail set I and II, Calbiochem). The protein concentrations of the lysates were measured using the Bio-Rad protein assay reagent on a Beckman Coulter DU-800 spectrophotometer. The lysates were then resolved by SDS-PAGE and immunoblotted with indicated antibodies.
# as §2
# HFF-1 cells = test: Cell viability of HFF-1 normal cells (CCK-8 cell proliferation assay); type: cell-based, human; settings: 72 hours
# Method: as §4
# HeLa cells = test: Cell viability of HeLa cells (CCK-8 cell proliferation assay); type: cell-based; settings: 72 hours
# Method: as §4
# BRDs = test: Western blot analysis of BRDs in OVCAR-8 ovary cancer cells; type: cell-based; settings: OVCAR-8 cells
# Method: as §5, §2
# IKZF3 [5] = target: T4, IKZF3; test: Western blotting of IKZF3 in FOLR1-negative THP-1 cells; type: cell-based; design: endogenous in cells; settings: 12 hours
# Method: as §2
compound,measurement,setting,value
Cc1ncsc1-c1ccc([C@H](C)NC(=O)[C@@H]2C[C@@H](OC(=O)CCCCn3cc(CNC(=O)CC[C@H](NC(=O)c4ccc(NCc5cnc6nc(N)[nH]c(=O)c6n5)cc4)C(=O)O)nn3)CN2C(=O)[C@@H](NC(=O)COCCCOCCNC(=O)C[C@@H]2N=C(c3ccc(Cl)cc3)c3c(sc(C)c3C)-n3c(C)nnc32)C(C)(C)C)cc1 [Folate-ARV-771],effect in degrading BRD4 after pretreatment with endocytosis inhibitor MβCD,BRD4; HeLa cells pretreated with MβCD,efficiently blocked the effect
"Nc1nc2ncc(CNc3ccc(C(=O)N[C@@H](CCC(=O)NCc4cn(CCCCCCOC(=O)N5C(=O)CCC(N6C(=O)c7cccc(N)c7C6=O)C5=O)nn4)C(=O)O)cc3)nc2c(=O)[nH]1 (stereo partly drawn) [FA-C2-POMA, N^5-((1-(6-((3-(4-amino-1,3-dioxoisoindolin-2-yl)-2,6-dioxopiperidine-1-carbonyl)oxy)hexyl)-1H-1,2,3-triazol-4-yl)methyl)-N^2-(4-(((2-amino-4-oxo-3,4-dihydropteridin-6-yl)methyl)amino)benzoyl)-L-glutamine]",competition with biotinylated-pomalidomide to bind CRBN E3 ubiquitin ligase,[1],not compete
same,degradation of IKZF3,IKZF3 [2],ineffective in degrading IKZF3
same,IC50,MM.1S cells; 72 hours,62300 nM
"Nc1nc2ncc(CNc3ccc(C(=O)N[C@@H](CCC(=O)NCc4cn(CCSSCCOC(=O)N5C(=O)CCC(N6C(=O)c7cccc(N)c7C6=O)C5=O)nn4)C(=O)O)cc3)nc2c(=O)[nH]1 (stereo partly drawn) [FA-S2-POMA, N^5-((1-(2-((2-((3-(4-amino-1,3-dioxoisoindolin-2-yl)-2,6-dioxopiperidine-1-carbonyl)oxy)ethyl)disulfanyl)ethyl)-1H-1,2,3-triazol-4-yl)methyl)-N^2-(4-(((2-amino-4-oxo-3,4-dihydropteridin-6-yl)methyl)amino)benzoyl)-L-glutamine]",competition with biotinylated-pomalidomide to bind CRBN E3 ubiquitin ligase,[1],not compete
same,release of active pomalidomide upon treatment with reducing agent GSH (pulldown),[1]; pretreated with GSH,can release pomalidomide
same,degradation of IKZF3,IKZF3 [2],degraded IKZF3 or IKZF1
same,degradation of IKZF1,IKZF1,degraded IKZF3 or IKZF1
same,IC50,MM.1S cells; 72 hours,1000 nM
same,potency in inhibiting proliferation after pretreatment with S-Ac-GSH,MM.1S cells; S-Ac-GSH 1 mM,significantly increased potency
same,potency for suppression of proliferation with co-treatment of folic acid,"MM.1S cells; folic acid co-treatment, 72 hours",significant reduction in potency
same,release of pomalidomide after addition of DTT,[3],efficient release of pomalidomide
same,effect on degrading IKZF3 with co-treatment of folic acid,"IKZF3 [4]; MM.1S cells, 2.5 mM folic acid",effectively antagonized the effect
same,effect on degrading IKZF3 after depletion of endogenous CRBN E3 ubiquitin ligase,IKZF3 [4]; MM.1S cells,completely abolished the effect
same,potency in degrading IKZF3 after pretreatment with S-Ac-GSH,"IKZF3 [4]; MM.1S cells, S-Ac-GSH 1 mM",significantly increased the potentcy
same,effect on degradation of IKZF3 with MG132 or MLN4924,"IKZF3 [4]; MM.1S cells, proteasome inhibitor MG132 or neddylation inhibitor MLN4924",blocked the effect
same,effect on degrading IKZFs with endocytosis inhibitor pitstop 2 or MβCD,IKZF3 [4]; co-treatment with pitstop 2 or methyl-β-cyclodextrin (MβCD),compromised the effect
"Cc1ncsc1-c1ccc([C@H](C)NC(=O)[C@@H]2C[C@@H](O)CN2C(=O)[C@@H](NC(=O)CCCCCCCCCCNCCCONC(=O)c2ccc(F)c(F)c2Nc2ccc(I)cc2F)C(C)(C)C)cc1 [MS432, reference compound]",IC50,HT-29 cells,176 nM
same,IC50,SK-MEL-28 cells,32.4 nM
"Cc1ncsc1-c1ccc([C@H](C)NC(=O)[C@@H]2C[C@@H](OC(=O)CCCCn3cc(CNC(=O)CC[C@H](NC(=O)c4ccc(NCc5cnc6nc(N)[nH]c(=O)c6n5)cc4)C(=O)O)nn3)CN2C(=O)[C@@H](NC(=O)CCCCCCCCCCNCCCONC(=O)c2ccc(F)c(F)c2Nc2ccc(I)cc2F)C(C)(C)C)cc1 [Folate-MS432, N^2-(4-(((2-amino-4-oxo-3,4-dihydropteridin-6-yl)methyl)amino)benzoyl)-N^5-((1-(5-(((3R,5S)-1-((S)-2-(11-((3-((3,4-difluoro-2-((2-fluoro-4-iodophenyl)amino)benzamido)oxy)propyl)amino)undecanamido)-3,3-dimethylbutanoyl)-5-(((S)-1-(4-(4-methylthiazol-5-yl)phenyl)ethyl)carbamoyl)pyrrolidin-3-yl)oxy)-5-oxopentyl)-1H-1,2,3-triazol-4-yl)methyl)-L-glutamine]",IC50,HT-29 cells; Homo sapiens,436 nM
same,degradation of MEK1 and MEK2,"MEK1 and MEK2; HT29 and SK-MEL-28 cells, dose- and time-dependent",degraded MEK1 and MEK2
same,effect in degrading MEK1 and MEK2 after pretreatment of folic acid,"MEK1 and MEK2; HT-29 and SK-MEL-28 cells, folic acid pretreatment",blocked the effect
same,degradation of MEK1/2 after pretreatment with VHL ligand Ac-VHL,"MEK1 and MEK2; HT-29 cells, Ac-VHL pretreatment",blocked the degradation of MEK1/2
same,IC50,SK-MEL-28 cells; Homo sapiens,390 nM
Cc1ncsc1-c1ccc([C@H](C)NC(=O)[C@@H]2C[C@@H](O)CN2C(=O)[C@@H](NC(=O)COCCCOCCNC(=O)C[C@@H]2N=C(c3ccc(Cl)cc3)c3c(sc(C)c3C)-n3c(C)nnc32)C(C)(C)C)cc1 [ARV-771],IC50,HFF-1 cells,1100 nM
same,IC50,HeLa cells,183 nM
Cc1ncsc1-c1ccc([C@H](C)NC(=O)[C@@H]2C[C@@H](NC(=O)CCCCn3cc(CNC(=O)CC[C@H](NC(=O)c4ccc(NCc5cnc6nc(N)[nH]c(=O)c6n5)cc4)C(=O)O)nn3)CN2C(=O)[C@@H](NC(=O)COCCCOCCNC(=O)C[C@@H]2N=C(c3ccc(Cl)cc3)c3c(sc(C)c3C)-n3c(C)nnc32)C(C)(C)C)cc1 [Folate-ARV-771N],degrading BRDs,"BRD4; HeLa cells, even at 100 nM",incapable of degrading BRDs
same,degradation of BRDs,BRDs,"but not Folate-ARV-771N, degraded BRDs"
"Nc1cccc2c1C(=O)N(C1CCC(=O)NC1=O)C2=O (stereo not drawn) [pomalidomide, reference compound]",degradation of IKZF3,IKZF3 [2],degrade IKZF3 or IKZF1
same,degradation of IKZF1,IKZF1,degrade IKZF3 or IKZF1
same,IC50,MM.1S cells; 72 hours,58 nM
same,effect on degrading IKZF3 after depletion of endogenous CRBN E3 ubiquitin ligase,IKZF3 [4]; MM.1S cells,completely abolished the effect
same,degradation of IKZF3,IKZF3 [5],degrade IKZF3 or IKZF1
